# US20230167127A1, “COMPOUNDS AND THEIR USE IN THE TREATMENT OF BACTERIAL INFECTION” (Hoffmann-La Roche Inc., priority 2020, published 2023)
# Counter-ions that a name gives are not always drawn.
# Tested on: Escherichia coli ATCC 25922
# Experiment: 50% growth inhibitory concentration (IC50) determination, Iso-Sensitest broth dilution
# Format: cell-based
# Details: Escherichia coli, ATCC25922, 16 h, strain Escherichia coli ATCC 25922; 10-point broth dilution, optical density at 600 nm over 16 h; read-out: Escherichia coli growth inhibition IC50
# In short: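 10-point twofold Iso-Sensitest broth dilution (e.g. 50 to 0.097 μM final) with DMSO stocks, incubated at 35±2° C. Growth followed by OD 600 nm every 20 min over 16 h; IC50 derived from growth inhibition during logarithmic phase.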
row,Structure (SMILES),IC50 [µM]
1,"N#Cc1c(OCC2(N)CC2)ccc2c1CC(CNCCC1CN(c3ccc4c(n3)NC(=O)CO4)C(=O)O1)C2 (stereo not drawn) [Example 124, 5-[(1-aminocyclopropyl)methoxy]-2-[[2-[2-oxo-3-(3-oxo-4H-pyrido[3,2-b][1,4]oxazin-6-yl)-1,3-oxazolidin-5-yl]ethylamino]methyl]-2,3-dihydro-1H-indene-4-carbonitrile hydrochloride]",< 0.0977
2,"NC(=O)COc1cc(F)c2c(c1)CC(CNCCc1cn(-c3cnc4c(n3)NC(=O)CO4)c(=O)o1)C2 (stereo not drawn) [Example 306, 2-[[7-fluoro-2-[[2-[2-oxo-3-(3-oxo-4H-pyrazino[2,3-b][1,4]oxazin-6-yl)-1,3-oxazol-5-yl]ethylamino]methyl]-2,3-dihydro-1H-inden-5-yl]oxy]acetamide; formic acid]",< 0.0977
3,"CS(=O)(=O)NCCOc1ccc2c(c1C#N)CC(CNCCC1CN(c3ccc4c(n3)NC(=O)CO4)C(=O)O1)C2 (stereo not drawn) [Example 59, N-[2-[[4-cyano-2-[[2-[2-oxo-3-(3-oxo-4H-pyrido[3,2-b][1,4]oxazin-6-yl)-1,3-oxazolidin-5-yl]ethylamino]methyl]-2,3-dihydro-1H-inden-5-yl]oxy]ethyl]methanesulfonamide]",0.253
4,"N#Cc1cccc2c1CC(CNC[C@@H](O)[C@H]1CN(c3ccc4c(c3)NC(=O)CO4)C(=O)O1)C2 (stereo partly drawn) [Example 61, 2-[[[(2R)-2-hydroxy-2-[(5R)-2-oxo-3-(3-oxo-4H-1,4-benzoxazin-6-yl)-1,3-oxazolidin-5-yl]ethyl]amino]methyl]-2,3-dihydro-1H-indene-4-carbonitrile; formic acid]",0.164
5,"COc1cnc(Cl)c2c1CC(CNCCC1CN(c3ccc4c(n3)NC(=O)CO4)C(=O)O1)C2 (stereo not drawn) [Example 57, 6-[5-[2-[(1-chloro-4-methoxy-6,7-dihydro-5H-cyclopenta[c]pyridin-6-yl)methylamino]ethyl]-2-oxo-1,3-oxazolidin-3-yl]-4H-pyrido[3,2-b][1,4]oxazin-3-one]",0.328
6,"N#Cc1cc(OC2CNC2)cc2c1CC(CNCCC1CN(c3ccc4c(n3)NC(=O)CO4)C(=O)O1)C2 (stereo not drawn) [Example 190, 6-(azetidin-3-yloxy)-2-[[2-[2-oxo-3-(3-oxo-4H-pyrido[3,2-b][1,4]oxazin-6-yl)-1,3-oxazolidin-5-yl]ethylamino]methyl]-2,3-dihydro-1H-indene-4-carbonitrile; 2,2,2-trifluoroacetic acid]",< 0.0977
7,"NC1c2cccc(Cl)c2CC1NCCCC1CN(c2ccc3c(n2)NC(=O)CO3)C(=O)O1 (racemic) [Example 244, 6-[2-oxo-5-[3-[[rac-1,2-trans-1-amino-4-chloro-2,3-dihydro-1H-inden-2-yl]amino]propyl]-1,3-oxazolidin-3-yl]-4H-pyrido[3,2-b][1,4]oxazin-3-one]",< 0.0977
8,"N#Cc1cccc2c1CC(CN1CCC3(CC1)CN(c1cnc4c(n1)NC(=O)CO4)C(=O)O3)C2 (stereo not drawn) [Example 261, 2-[[2-Oxo-3-(3-oxo-4H-pyrazino[2,3-b][1,4]oxazin-6-yl)-1-oxa-3,8-diazaspiro[4.5]decan-8-yl]methyl]-2,3-dihydro-1H-indene-4-carbonitrile; formic acid]",< 0.0977

# The remaining lines, values ahead:
row,IC50 [µM],Structure (SMILES)
1,< 0.0977,"Cc1noc(COc2cc(C#N)c3c(c2)CC(CNCCC2CN(c4cnc5c(n4)NC(=O)CO5)C(=O)O2)C3)n1 (stereo not drawn) [Example 387, 6-[(3-methyl-1,2,4-oxadiazol-5-yl)methoxy]-2-[[2-[2-oxo-3-(3-oxo-4H-pyrazino[2,3-b][1,4]oxazin-6-yl)-1,3-oxazolidin-5-yl]ethylamino]methyl]-2,3-dihydro-1H-indene-4-carbonitrile]"
2,0.139,"CNC(=O)COc1cc(C#N)c2c(c1C)CC(CNCCC1CN(c3cnc4c(n3)NC(=O)CO4)C(=O)O1)C2 (stereo not drawn) [Example 383, 2-[[7-cyano-4-methyl-2-[[2-[2-oxo-3-(3-oxo-4H-pyrazino[2,3-b][1,4]oxazin-6-yl)-1,3-oxazolidin-5-yl]ethylamino]methyl]-2,3-dihydro-1H-inden-5-yl]oxy]-N-methylacetamide]"
3,< 0.0977,"C[C@@H](N)COc1cc(F)c2c(c1)CC(CN1CCC3(CC1)CN(c1cnc4c(n1)NC(=O)CO4)C(=O)O3)C2 (stereo partly drawn) [Example 357, 6-[8-[[6-[(2R)-2-aminopropoxy]-4-fluoro-2,3-dihydro-1H-inden-2-yl]methyl]-2-oxo-1-oxa-3,8-diazaspiro[4.5]decan-3-yl]-4H-pyrazino[2,3-b][1,4]oxazin-3-one; formic acid]"
4,< 0.0977,"Cc1ncc(F)c2c1C[C@@H](CNCC[C@H]1CN(c3cnc4c(n3)NC(=O)CO4)C(=O)O1)C2 [Example 428, 6-[(5S)-5-[2-[[(6R)-4-fluoro-1-methyl-6,7-dihydro-5H-cyclopenta[c]pyridin-6-yl]methylamino]ethyl]-2-oxo-1,3-oxazolidin-3-yl]-4H-pyrazino[2,3-b][1,4]oxazin-3-one]"
5,< 0.0977,"NC1(COc2cc(F)c3c(c2F)CC(CN2CCC4(CC2)CN(c2cnc5c(n2)NC(=O)CO5)C(=O)O4)C3)CC1 (stereo not drawn) [Example 410, 6-[8-[[5-[(1-aminocyclopropyl)methoxy]-4,7-difluoro-2,3-dihydro-1H-inden-2-yl]methyl]-2-oxo-1-oxa-3,8-diazaspiro[4.5]decan-3-yl]-4H-pyrazino[2,3-b][1,4]oxazin-3-one; formic acid]"
6,0.923,"Cc1nc(Cl)nc2c1CC(CNCCC1CN(c3ccc4c(n3)NC(=O)CO4)C(=O)O1)C2 (stereo not drawn) [Example 385, 6-[5-[2-[(2-chloro-4-methyl-6,7-dihydro-5H-cyclopenta[d]pyrimidin-6-yl)methylamino]ethyl]-2-oxo-1,3-oxazolidin-3-yl]-4H-pyrido[3,2-b][1,4]oxazin-3-one]"
7,0.172,"Cc1nccc2c1CC(NCCCc1cn(-c3cnc4c(n3)NC(=O)CO4)c(=O)o1)C2 (single isomer, unassigned; enantiomer a) [Example 369, 6-[5-[3-[(1-Methyl-6,7-dihydro-5H-cyclopenta[c]pyridin-6-yl)amino]propyl]-2-oxo-1,3-oxazol-3-yl]-4H-pyrazino[2,3-b][1,4]oxazin-3-one; formic acid, Enantiomer A]"
8,< 0.0977,"C[C@H](N)COc1cc(F)c2c(c1)CC(CN1CCC3(CC1)CN(c1cnc4c(n1)NC(=O)CO4)C(=O)O3)C2 (stereo partly drawn) [Example 356, 6-[8-[[6-[(2S)-2-aminopropoxy]-4-fluoro-2,3-dihydro-1H-inden-2-yl]methyl]-2-oxo-1-oxa-3,8-diazaspiro[4.5]decan-3-yl]-4H-pyrazino[2,3-b][1,4]oxazin-3-one; formic acid]"

# Same assay, conditions: strain Escherichia coli ATCC 25922; 10-point broth dilution, optical density at 600 nm over 16 h; read-out: Escherichia coli growth inhibition IC50
row,IC50 [µM],Structure (SMILES)
1,0.172,"N#Cc1cccc2c1CC(NC1CCC3(CN(c4ccc5c(n4)NC(=O)CO5)C(=O)O3)C(N)C1)C2 (racemic) [Example 166, 2-[[rac-5,6-cis-5,8-trans-6-amino-2-oxo-3-(3-oxo-4H-pyrido[3,2-b][1,4]oxazin-6-yl)-1-oxa-3-azaspiro[4.5]decan-8-yl]amino]-2,3-dihydro-1H-indene-4-carbonitrile]"
2,< 0.0977,"Cc1ncc(F)c2c1CC(NCCCc1cn(-c3cnc4c(n3)NC(=O)CO4)c(=O)o1)C2 (single isomer, unassigned; enantiomer b) [Example 368, 6-[5-[3-[(4-Fluoro-1-methyl-6,7-dihydro-5H-cyclopenta[c]pyridin-6-yl)amino]propyl]-2-oxo-1,3-oxazol-3-yl]-4H-pyrazino[2,3-b][1,4]oxazin-3-one, Enantiomer B]"
